The results in this text go back to ChEMBL document CHEMBL1134732, “Acid dissociation constant, a potential physicochemical factor in the inhibition of the enzyme estrone sulfatase (ES)” (Bioorg Med Chem Lett, 2001).

A value given as a limit tells only on which side of the number the result lay.

Data set [1] can be described thus: Dissociation constant was determined. Type of data set: physicochemical.
The target in data set [2] is T1, Steryl-sulfatase (Homo sapiens, UniProt P08842).
T1 sequence (P08842 whole entry): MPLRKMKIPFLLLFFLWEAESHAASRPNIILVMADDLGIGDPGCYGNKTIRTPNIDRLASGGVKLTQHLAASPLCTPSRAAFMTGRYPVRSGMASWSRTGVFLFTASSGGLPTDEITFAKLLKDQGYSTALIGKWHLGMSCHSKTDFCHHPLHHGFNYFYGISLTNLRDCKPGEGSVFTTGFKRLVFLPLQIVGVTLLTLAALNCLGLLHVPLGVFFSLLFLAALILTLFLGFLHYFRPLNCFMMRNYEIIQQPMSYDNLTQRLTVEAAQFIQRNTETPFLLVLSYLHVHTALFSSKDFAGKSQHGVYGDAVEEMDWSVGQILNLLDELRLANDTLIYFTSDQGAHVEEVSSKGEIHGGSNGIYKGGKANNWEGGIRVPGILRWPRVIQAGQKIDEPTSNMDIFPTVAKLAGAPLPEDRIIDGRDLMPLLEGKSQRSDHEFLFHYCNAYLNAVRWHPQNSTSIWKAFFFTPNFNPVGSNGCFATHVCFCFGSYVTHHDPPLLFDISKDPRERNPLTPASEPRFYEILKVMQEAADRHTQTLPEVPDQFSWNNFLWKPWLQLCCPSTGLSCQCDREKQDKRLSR
As to the kind of experiment: Inhibitory concentration against estrone sulfatase.

The target in data set [3] is T2, Steryl-sulfatase (Homo sapiens) (UniProt P08842).
T2 sequence (whole entry): T1 sequence (P08842 whole entry)
As to the kind of experiment: (§1) Potency for the inhibition of estrone sulfatase relative to coumate.

Data set [4] is described as follows: as §1.

The compound `NS(=O)(=O)Oc1ccc(F)cc1` yielded a pKa in data set [1] of 9.8. In addition, the IC50 in data set [2] is > 10000 µM.

In the case of `Cc1ccc(OS(N)(=O)=O)cc1`, the pKa in data set [1] worked out at 10.2. For the same compound, the IC50 in data set [2] is > 10000 µM.

Consider `N#Cc1cccc(OS(N)(=O)=O)c1`, for which, in data set [3], the Relative potency is 16. Further, the pKa in data set [1] is 8.54. The IC50 in data set [2] is 190 µM.

Regarding `NS(=O)(=O)Oc1ccc(Br)cc1`, the Relative potency in data set [3] came out at 76. The same compound had a pKa in data set [1] of 9.29. Moreover, in data set [2], the IC50 turned out to be 912 µM.

Compound `NS(=O)(=O)Oc1cccc(Br)c1` displayed a Relative potency in data set [3] of 21. Further, the pKa in data set [1] was 8.95. In data set [2], this compound displayed an IC50 of 257 µM.

In data set [4], `C[C@]12CC[C@@H]3c4ccc(OS(N)(=O)=O)cc4CC[C@H]3[C@@H]1CCC2=O` [EMATE] displayed a Relative potency of 0.008. For the same compound, the IC50 in data set [2] stood at 0.1 µM.

The compound `N#Cc1ccc(OS(N)(=O)=O)cc1` registered a Relative potency in data set [3] of 25. In data set [1], this compound yielded a pKa of 8.02. Inhibition in data set [2] was half-maximal at 300 µM (IC50).

With `NS(=O)(=O)Oc1cccc(F)c1`, the Relative potency in data set [3] was 174. Further, the pKa in data set [1] came out at 9.16. The compound also gave an IC50 in data set [2] of 2090 µM.

Consider `Cc1cccc(OS(N)(=O)=O)c1`, for which the pKa in data set [1] was 10. In addition, in data set [2], the IC50 was > 10000 µM.

On to `NS(=O)(=O)Oc1ccc2ccc(=O)oc2c1`, for which, in data set [4], the Relative potency is 1. In data set [2], this compound yielded an IC50 of 12 µM.

`NS(=O)(=O)Oc1ccc([N+](=O)[O-])cc1`: the Relative potency in data set [3] amounted to 27.5. The pKa in data set [1] came out at 7.15. Also, in data set [2], the IC50 was 330 µM.

Consider `NS(=O)(=O)Oc1cccc([N+](=O)[O-])c1`, for which the Relative potency in data set [3] was 10. The same compound gave a pKa in data set [1] of 8.28. Further, half-maximal inhibition in data set [2] (IC50) required 120 µM.

Take `NS(=O)(=O)Oc1ccc(Cl)cc1`: the Relative potency in data set [3] is 132. In data set [1], this compound displayed a pKa of 9.5. In data set [2], the IC50 came out at 1580 µM.

The compound `NS(=O)(=O)Oc1ccccc1` [PHENYLSULFAMATE] came in with a pKa in data set [1] of 9.98. The IC50 in data set [2] was > 10000 µM.

`NS(=O)(=O)Oc1cccc(Cl)c1` had a Relative potency in data set [3] of 45. This compound also yielded a pKa in data set [1] of 9. The compound further came in with a half-maximal inhibitory concentration (IC50) in data set [2] of 537 µM.
